{
  "source": "patent US7732199B2",
  "about": "“Process for making transplantable cardiomyocytes from human embryonic stem cells” (Geron Corporation, priority 2001, dated 2010)",
  "key": {"[1]": {"test_system": "cardiomyogenic cell line developed from bone marrow stroma", "conditions": "treated for 24 hours; cited from earlier work"}, "[2]": {"test_system": "hES cells of the H1 or H9 line being cultured as embryoid bodies"}, "[3]": {"test_system": "hES-derived cardiomyocytes", "assay": "Pharmacological response: contraction rate of beating areas of hES-derived cardiomyocytes", "type": "cell-based, human", "conditions": "for chronotropic effect: FIG. 5 Panels B to E", "experimental": "EBs were plated on to gelatin-coated 24-well plates and allowed to differentiate, as in Example 2. Contracting cardiomyocytes at differentiation day 15-21 were used for examining pharmacological response. The frequency of the spontaneous beating was measured by counting the contraction rate of the beating areas maintained in the differentiation medium in a 37° C. heating chamber of an inverted microscope. The cells were then incubated with test compounds in the incubator for 20-30 min, and observed for contraction rate. Dose-dependent effects were determined by cumulatively applying of increasing concentrations of each substrate. Data represent the mean pulsation rate±standard error of the mean measured on 10-20 beating areas.\nDifferentiated cells were incubated with various concentrations of the drug and the number of beats per minute was counted. The cells were then washed with medium, maintained in differentiation medium for 24 h and observed for the time taken to recover contractility."}, "[4]": {"test_system": "Undifferentiated hES cells of the H7 line", "assay": "Direct differentiation of plated hES cells to contracting cardiomyocytes", "type": "cell-based, human", "conditions": "10 μM at day 10-12 or 12-14; no embryoid body stage", "experimental": "Cardiomyocyte differentiation was also achieved in a direct differentiation paradigm. Undifferentiated hES cells of the H7 line were dissociated and plated directly onto gelatin-coated plates without going through an embryoid body stage. The plated cells were cultured in differentiation medium (80% KO-DMEM, 1 mM L-glutamine, 0.1 mM β-mercaptoethanol, 1% amino acids, and 20% fetal bovine serum). Contracting cardiomyocytes were found at day 18 in cultures treated with 10 μM 5-aza-deoxy-cytidine at day 10-12 or 12-14, and at later times in all cultures."}},
  "data": [
    {"smiles": "Nc1ncn([C@@H]2O[C@H](CO)[C@@H](O)[C@H]2O)c(=O)n1", "note": "[5-azacytidine]", "values": [
      {"measurement": "cells forming myotube-like structures, acquiring cardiomyocyte markers and beginning to beat", "setting": "[1]", "value": 30, "unit": "%"}
    ]},
    {"smiles": "C[S+](C)[O-]", "note": "[DMSO, dimethyl sulfoxide]", "values": [
      {"measurement": "toxicity to the cells", "setting": "[2]", "value": "toxic"},
      {"measurement": "beating areas compared with non-treated cultures", "setting": "[2]; 0.5% from days 0-4", "value": "fewer"},
      {"measurement": "beating cells", "setting": "[2]; 0.8% or 1%", "value": "absent"},
      {"measurement": "α-MHC expression compared with untreated cultures", "setting": "[2]; DMSO treatment", "value": "significant reduction"}
    ]},
    {"smiles": "CC(C)NCC(O)c1ccc(O)c(O)c1", "note": "(stereo not shown) [isoprenaline]", "values": [
      {"measurement": "chronotropic effect", "setting": "[3]", "value": "positive chronotropic effects"}
    ]},
    {"smiles": "CC1=C(/C=C/C(C)=C/C=C/C(C)=C/C(=O)O)C(C)(C)CCC1", "note": "[RA, all-trans retinoic acid]", "values": [
      {"measurement": "toxicity to the cells", "setting": "[2]", "value": "toxic"},
      {"measurement": "beating cells compared with untreated cultures", "setting": "[2]; doses between 10^−9 and 10^−5 M, at days 4-8, 8-15, or 4-15", "value": "no increase"}
    ]},
    {"smiles": "CNC[C@H](O)c1cccc(O)c1", "note": "[phenylephrine]", "values": [
      {"measurement": "chronotropic effect", "setting": "[3]", "value": "positive chronotropic effects"}
    ]},
    {"smiles": "Nc1ncn([C@H]2C[C@H](O)[C@@H](CO)O2)c(=O)n1", "note": "[5-aza-deoxy-cytidine]", "values": [
      {"measurement": "proportion of beating areas in the culture", "setting": "[2]; 1 to 10 μM at day 6-8", "value": "increased"},
      {"measurement": "expression of cardiac α-MHC (ratio of αMHC to 18S RNA)", "setting": "[2]; 1 to 10 μM at day 6-8, harvested at day 15", "value": "significantly increased"},
      {"measurement": "day at which contracting cardiomyocytes were found", "setting": "[4]", "value": 18, "unit": "days"}
    ]},
    {"smiles": "COc1ccc([C@@H]2Sc3ccccc3N(CCN(C)C)C(=O)[C@@H]2OC(C)=O)cc1", "note": "[diltiazem]", "values": [
      {"measurement": "beating areas that stopped contraction", "setting": "[3]; 10^−5 M", "value": 100, "unit": "%"},
      {"measurement": "time until contraction recovered to normal levels after removal of the drug", "setting": "[3]; cells washed and kept in differentiation medium", "value": "24 to 48", "unit": "h"},
      {"measurement": "beating rate", "setting": "[3]; various concentrations, incubated 20-30 min, differentiation day 15-21, FIG. 5 Panel A", "value": "inhibited"}
    ]},
    {"smiles": "CC(C)(C)NCC(O)c1cc(Cl)c(N)c(Cl)c1", "note": "(stereo not shown) [clenbuterol]", "values": [
      {"measurement": "beating rate after treatment", "setting": "[3]; 1-10 nM, cells taken at Day 72, from about 72 beats/min, p<0.005", "value": "about 98 beats/min"}
    ]}
  ]
}
